Laboratory results taken from patent publication US11083725B2 (priority 2014, dated 2021).

Test system: NHBE cells
Experiment: Biolog metabolic array: substrate use by NHBE cells with or without CA09 infection
Format: cell-based, human
Conditions: for Substrate use, 590 nm absorbance normalized to zero hour, 1 hr: Biolog PMM2, 1 hr; for Substrate use, 590 nm absorbance normalized to zero hour, 5 hr: Biolog PMM2, 5 hr; for Substrate use, 590 nm absorbance normalized to zero hour, 7 hr: Biolog PMM2, 7 hr
[1] = Control (uninfected) NHBE cells
[2] = Virus (CA09-infected, MOI 1) NHBE cells
[3] = Virus: CA09-infected NHBE cells, MOI 1, Biolog PMM2

Compound	590 nm absorbance normalized to zero hour (substrate use), 1 hr [1]	590 nm absorbance normalized to zero hour (substrate use), 2 hr [1]	590 nm absorbance normalized to zero hour (substrate use), 3 hr [1]	590 nm absorbance normalized to zero hour (substrate use), 4 hr [1]	590 nm absorbance normalized to zero hour (substrate use), 6 hr [1]	590 nm absorbance normalized to zero hour (substrate use), 8 hr [1]	590 nm absorbance normalized to zero hour (substrate use), 9 hr [1]	590 nm absorbance normalized to zero hour (substrate use), 10 hr [1]	590 nm absorbance normalized to zero hour (substrate use), 11 hr [1]	Substrate use, 590 nm absorbance normalized to zero hour, 1 hr [1]	Substrate use, 590 nm absorbance normalized to zero hour, 5 hr [1]	Substrate use, 590 nm absorbance normalized to zero hour, 7 hr [1]	590 nm absorbance normalized to zero hour (substrate use), 1 hr [2]	590 nm absorbance normalized to zero hour (substrate use), 2 hr [2]	590 nm absorbance normalized to zero hour (substrate use), 3 hr [2]	590 nm absorbance normalized to zero hour (substrate use), 4 hr [2]	590 nm absorbance normalized to zero hour (substrate use), 5 hr [2]	590 nm absorbance normalized to zero hour (substrate use), 6 hr [2]	590 nm absorbance normalized to zero hour (substrate use), 7 hr [2]	590 nm absorbance normalized to zero hour (substrate use), 8 hr [2]	also measured
O=C(CO)[C@@H](O)[C@@H](O)[C@H](O)CO [D-Tagatose]	1.07	1.01	0.88	0.28	0.49	0.34	0.36	0.37	0.39	1.07	0.29	0.32	0.17	0.24	0.28	0.30	0.36	0.39	0.42	0.44	590 nm absorbance normalized to zero hour (substrate use), 9 hr [2]: 0.49; 590 nm absorbance normalized to zero hour (substrate use), 10 hr [2]: 0.51; 590 nm absorbance normalized to zero hour (substrate use), 1 hr [3]: 0.17; 590 nm absorbance normalized to zero hour (substrate use), 2 hr [3]: 0.24; 590 nm absorbance normalized to zero hour (substrate use), 3 hr [3]: 0.28; 590 nm absorbance normalized to zero hour (substrate use), 4 hr [3]: 0.30; 590 nm absorbance normalized to zero hour (substrate use), 5 hr [3]: 0.36; 590 nm absorbance normalized to zero hour (substrate use), 6 hr [3]: 0.39; 590 nm absorbance normalized to zero hour (substrate use), 7 hr [3]: 0.42; 590 nm absorbance normalized to zero hour (substrate use), 8 hr [3]: 0.44; 590 nm absorbance normalized to zero hour (substrate use), 9 hr [3]: 0.49; 590 nm absorbance normalized to zero hour (substrate use), 10 hr [3]: 0.51; 590 nm absorbance normalized to zero hour (substrate use), 11 hr [3]: 0.48
CCC(=O)O [Propionic Acid]	1.39	1.55	1.71	1.74	0.17	1.84	1.99	1.15	1.23	1.39	1.91	1.75	1.23	0.70	0.83	0.93	1.08	1.15	1.17	1.18	590 nm absorbance normalized to zero hour (substrate use), 9 hr [2]: 1.32; 590 nm absorbance normalized to zero hour (substrate use), 10 hr [2]: 1.11; 590 nm absorbance normalized to zero hour (substrate use), 11 hr [2]: 1.26; 590 nm absorbance normalized to zero hour (substrate use), 1 hr [3]: 1.23; 590 nm absorbance normalized to zero hour (substrate use), 2 hr [3]: 0.70; 590 nm absorbance normalized to zero hour (substrate use), 3 hr [3]: 0.83; 590 nm absorbance normalized to zero hour (substrate use), 4 hr [3]: 0.93; 590 nm absorbance normalized to zero hour (substrate use), 5 hr [3]: 1.08; 590 nm absorbance normalized to zero hour (substrate use), 6 hr [3]: 1.15; 590 nm absorbance normalized to zero hour (substrate use), 7 hr [3]: 1.17; 590 nm absorbance normalized to zero hour (substrate use), 8 hr [3]: 1.18; 590 nm absorbance normalized to zero hour (substrate use), 9 hr [3]: 1.32; 590 nm absorbance normalized to zero hour (substrate use), 10 hr [3]: 1.11; 590 nm absorbance normalized to zero hour (substrate use), 11 hr [3]: 1.26
Pectin	3.40	1.82	1.76	1.72	2.65	0.95	1.44	1.37	0.91	3.40	1.45	1.44	3.25	2.85	0.75	0.80	0.91	0.95	1.00	1.05	590 nm absorbance normalized to zero hour (substrate use), 0 hr [1]: 1.00; Substrate use, 590 nm absorbance normalized to zero hour, 0 hr (Control (uninfected) NHBE cells, Biolog PMM2, 0 hr): 1.00; 590 nm absorbance normalized to zero hour (substrate use), 0 hr [2]: 1.00; 590 nm absorbance normalized to zero hour (substrate use), 9 hr [2]: 1.15; 590 nm absorbance normalized to zero hour (substrate use), 10 hr [2]: 1.17; 590 nm absorbance normalized to zero hour (substrate use), 11 hr [2]: 1.27; 590 nm absorbance normalized to zero hour (substrate use), 0 hr [3]: 1.00; 590 nm absorbance normalized to zero hour (substrate use), 1 hr [3]: 3.25; 590 nm absorbance normalized to zero hour (substrate use), 2 hr [3]: 2.85; 590 nm absorbance normalized to zero hour (substrate use), 3 hr [3]: 0.75; 590 nm absorbance normalized to zero hour (substrate use), 4 hr [3]: 0.80; 590 nm absorbance normalized to zero hour (substrate use), 5 hr [3]: 0.91; 590 nm absorbance normalized to zero hour (substrate use), 6 hr [3]: 0.95; 590 nm absorbance normalized to zero hour (substrate use), 7 hr [3]: 1.00; 590 nm absorbance normalized to zero hour (substrate use), 8 hr [3]: 1.05; 590 nm absorbance normalized to zero hour (substrate use), 9 hr [3]: 1.15; 590 nm absorbance normalized to zero hour (substrate use), 10 hr [3]: 1.17; 590 nm absorbance normalized to zero hour (substrate use), 11 hr [3]: 1.27
